Where two headings read alike, the source gives them in different places.
Columns and labels:
serum uric acid = assay: Serum uric acid (urate), exploratory pharmacodynamic outcome; table data mean (standard deviation); type: in vivo, healthy men; conditions: for decrease in mean serum uric acid concentration: 48 hours after dosing
Text: The primary objective of the study was to evaluate the safety and tolerability of AZD4831 in healthy volunteers.
Data are mean (standard deviation).

CYP3A4 = test system: CYP3A4; parameters: method as in unpublished data; conditions: in vitro; ref unpublished data; cited from earlier work
[1] = Urinary pharmacokinetics after single oral dose, phase I; type: in vivo, healthy men; conditions: male, human, urine
Procedure: Urine was collected for pharmacokinetic analyses before dosing (spot sample) and 0–3, 3–6, 6–9, 9–12, 12–24, 24–36 and 36–48 hours after dosing (pooled samples). Samples for determination of AZD4831 in urine were analysed by Covance Laboratories Ltd. (Harrogate, UK). […] This method was validated prior to sample analysis in the range 20–20 000 nmol L^−1 in urine, using a 25 μL sample aliquot.

[2] = test system: urate anion exchanger 1 (URAT1; SLC22A12); parameters: method as in E Michaëlsson et al., manuscript in preparation; conditions: in vitro; ref E Michaëlsson et al., manuscript in preparation; cited from earlier work

For `C[C@@H](N)c1cc(Cl)ccc1Cn1c(=S)[nH]c(=O)c2[nH]ccc21` [AZD4831], the Urate (serum uric acid; 5 mg fasted, 24 h) was 335.1 (75.2) µmol L^–1, the Urate (serum uric acid; 5 mg fasted, 48 h) was 293.2 (64.0) µmol L^–1 and the Urate (serum uric acid; 5 mg fasted, follow up) was 326.3 (84.2) µmol L^–1. The Urate (serum uric acid; 15 mg fasted, 24 h) was 364.7 (35.3) µmol L^–1, the Urate (serum uric acid; 15 mg fasted, 48 h) was 331.6 (30.7) µmol L^–1 and the Urate (serum uric acid; 15 mg fasted, 72 h) was 355.7 (25.4) µmol L^–1. For the same compound, the Urate (serum uric acid; 15 mg fasted, 96 h) was 366.5 (25.3) µmol L^–1, the Urate (serum uric acid; 15 mg fasted, 120 h) was 370.8 (40.4) µmol L^–1 and the Urate (serum uric acid; 15 mg fasted, follow up) was 366.3 (47.1) µmol L^–1. The Urate (serum uric acid; 45 mg fasted, 24 h) was 361.7 (111.9) µmol L^–1, the Urate (serum uric acid; 45 mg fasted, 48 h) was 339.8 (113.0) µmol L^–1 and the Urate (serum uric acid; 45 mg fasted, 72 h) was 362.1 (111.6) µmol L^–1. For the same compound, the Urate (serum uric acid; 45 mg fasted, 96 h) was 366.3 (112.8) µmol L^–1, the Urate (serum uric acid; 45 mg fasted, 120 h) was 382.6 (93.3) µmol L^–1 and the Urate (serum uric acid; 45 mg fasted, follow up) was 397.6 (112.6) µmol L^–1. The Urate (serum uric acid; 45 mg fed, 24 h) was 296.4 (62.8) µmol L^–1, the Urate (serum uric acid; 45 mg fed, 48 h) was 283.0 (57.0) µmol L^–1 and the Urate (serum uric acid; 45 mg fed, 72 h) was 313.2 (47.1) µmol L^–1. The Urate (serum uric acid; 45 mg fed, 96 h) was 316.0 (47.3) µmol L^–1, the Urate (serum uric acid; 45 mg fed, 120 h) was 316.5 (67.1) µmol L^–1 and the Urate (serum uric acid; 45 mg fed, follow up) was 314.0 (77.9) µmol L^–1. The Urate (serum uric acid; 135 mg fasted, 24 h) was 344.3 (18.6) µmol L^–1, the Urate (serum uric acid; 135 mg fasted, 48 h) was 311.3 (18.6) µmol L^–1 and the Urate (serum uric acid; 135 mg fasted, 72 h) was 339.2 (13.9) µmol L^–1. For the same compound, the Urate (serum uric acid; 135 mg fasted, 96 h) was 346.2 (25.0) µmol L^–1, the Urate (serum uric acid; 135 mg fasted, 120 h) was 365.9 (42.1) µmol L^–1 and the Urate (serum uric acid; 135 mg fasted, follow up) was 370.3 (31.4) µmol L^–1. For the same compound, the “decrease in mean serum uric acid concentration” value (serum uric acid; 135 mg, 95% CI 29.15, 114.39, mean predose 383.0 (SD 47.5)) was 71.77 µmol/L, the Urate (serum uric acid; 405 mg fasted, 24 h) was 262.8 (65.4) µmol L^–1 and the Urate (serum uric acid; 405 mg fasted, 48 h) was 244.6 (51.2) µmol L^–1. For the same compound, the Urate (serum uric acid; 405 mg fasted, 72 h) was 256.1 (44.7) µmol L^–1, the Urate (serum uric acid; 405 mg fasted, 96 h) was 289.3 (46.2) µmol L^–1 and the Urate (serum uric acid; 405 mg fasted, 120 h) was 307.2 (50.9) µmol L^–1. The Urate (serum uric acid; 405 mg fasted, follow up) was 322.2 (59.1) µmol L^–1, the “decrease in mean serum uric acid concentration” value (serum uric acid; 405 mg, 95% CI 58.90, 109.94, mean predose 329.0 (SD 54.2)) was 84.42 µmol/L and the “involvement of CYP3A4 in metabolism” value (CYP3A4) was “involved in the metabolism”. For the same compound, the CL renal ([1]; 5 mg, 5 mg fasted, geometric mean (CV), read-out: CLR (converted)) was 252 mL/min, the CL renal ([1]; 5 mg, 5 mg fasted, read-out: mean renal clearance (converted)) was 257 mL/min and the CL renal ([1]; 15 mg, 15 mg fasted, geometric mean (CV), read-out: CLR (converted)) was 240 mL/min. For the same compound, the CL renal ([1]; 45 mg, 45 mg fasted, geometric mean (CV), read-out: CLR (converted)) was 162 mL/min, the CL renal ([1]; 135 mg, 135 mg fasted, geometric mean (CV), read-out: CLR (converted)) was 157 mL/min and the CL renal ([1]; 405 mg, 405 mg fasted, geometric mean (CV), read-out: CLR (converted)) was 132 mL/min. For the same compound, the CL renal ([1]; 405 mg, 405 mg fasted, read-out: mean renal clearance (converted)) was 148 mL/min and the “inhibition of URAT1 uric acid transport” value [2] was “does not inhibit”.
